Experimental data as given in EPA's CvTdb concentration-time database.

Columns and labels:
Mouse [1] = assay: concentration in plasma after dosing; settings: dosed: 2,4-Dichlorophenoxyacetic acid, 5.2 mg/kg, oral, Male, B6C3F1
Mouse [2] = assay: concentration in plasma after dosing; settings: dosed: 2,4-Dichlorophenoxyacetic acid, 2.0 mg/kg, oral, Male, B6C3F1
Rat [3] = assay: concentration in plasma after dosing; settings: dosed: 2-Hydroxy-4-methoxybenzophenone, 250 mg/kg, oral, Male, F344
Rat [4] = assay: concentration in plasma after dosing; settings: 10 min; dosed: 2-Hydroxy-4-methoxybenzophenone; 100 mg/kg; oral; Male; F344
Mouse [5] = assay: concentration in plasma after dosing; settings: 0.25 h; dosed: 2-Hydroxy-4-methoxybenzophenone; 500 mg/kg; oral; Male; B6C3F1
Mouse [6] = assay: concentration in plasma after dosing; settings: 0.25 h; dosed: 2-Hydroxy-4-methoxybenzophenone; 50 mg/kg; iv; Female; B6C3F1
Mouse [7] = assay: concentration in plasma after dosing; settings: 2 h; dosed: 2-Hydroxy-4-methoxybenzophenone; 50 mg/kg; iv; Female; B6C3F1
Mouse [8] = assay: concentration in plasma after dosing; settings: 10 min; dosed: 2-Hydroxy-4-methoxybenzophenone; 500 mg/kg; oral; Male; B6C3F1
Mouse [9] = assay: concentration in plasma after dosing; settings: dosed: 2-Hydroxy-4-methoxybenzophenone, 100 mg/kg, oral, Male, B6C3F1
Mouse [10] = assay: concentration in plasma after dosing; settings: 3 h; dosed: 2-Hydroxy-4-methoxybenzophenone; 250 mg/kg; oral; Male; B6C3F1
Rat [11] = assay: concentration in plasma after dosing; settings: dosed: Methyleugenol, 37 mg/kg, iv, Male, F344
Rat [12] = assay: concentration in plasma after dosing; settings: dosed: Methyleugenol, 37 mg/kg, iv, Female, F344
Rat [13] = assay: concentration in plasma after dosing; settings: dosed: Methyleugenol, 37 mg/kg, oral, Female, F344/N
Rat [14] = assay: concentration in plasma after dosing; settings: dosed: Methyleugenol, 37 mg/kg, oral, Male, F344/N
Rat [15] = assay: concentration in plasma after dosing; settings: 2 min; dosed: Methyleugenol; 37 mg/kg; iv; Female; F344
Rat [16] = assay: concentration in liver after dosing; settings: 192 h; dosed: Perfluorohexane-1-sulphonic acid – potassium salt; 16 mg/kg; oral; Female; Harlan Sprague Dawley
Rat [17] = assay: concentration in brain after dosing; settings: 24 h; dosed: Perfluorohexane-1-sulphonic acid – potassium salt; 16 mg/kg; oral; Female; F344
Rat [18] = assay: concentration in kidney after dosing; settings: 192 h; dosed: Perfluorohexane-1-sulphonic acid – potassium salt; 16 mg/kg; oral; Female; Harlan Sprague Dawley
Rat [19] = assay: concentration in kidney after dosing; settings: 1200 h; dosed: Perfluorohexane-1-sulphonic acid – potassium salt; 16 mg/kg; oral; Male; Harlan Sprague Dawley
Rat [20] = assay: concentration in plasma after dosing; settings: dosed: Perfluorohexane-1-sulphonic acid – potassium salt, 4 mg/kg, oral, Male, F344
Rat [21] = assay: concentration in kidney after dosing; settings: 48 h; dosed: Perfluorohexane-1-sulphonic acid – potassium salt; 16 mg/kg; oral; Female; Harlan Sprague Dawley
Rat [22] = assay: concentration in plasma after dosing; settings: 9 h; dosed: Primidone; 80 mg/kg; oral; Female; F344
Rat [23] = assay: concentration in plasma after dosing; settings: 1.5 h; dosed: Primidone; 30 mg/kg; oral; Female; F344
Rat [24] = assay: concentration in plasma after dosing; settings: 12 h; dosed: Primidone; 30 mg/kg; oral; Female; F344
Rat [25] = assay: concentration in plasma after dosing; settings: 2 h; dosed: Pyridine; 5 mg/kg; iv; Male; F344
Rat [26] = assay: concentration in plasma after dosing; settings: 40 h; dosed: Pyridine; 100 mg/kg; oral; Male; F344
Rat [27] = assay: concentration in plasma after dosing; settings: dosed: Pyridine, 5 mg/kg, iv, Male, F344
Rat [28] = assay: concentration in plasma after dosing; settings: 20 h; dosed: Pyridine; 25 mg/kg; oral; Male; F344
Rat [29] = assay: concentration in brain after dosing; settings: 6 h; dosed: alpha-Thujone; 25 mg/kg; oral; Male; Harlan Sprague Dawley
Rat [30] = assay: concentration in brain after dosing; settings: 5 min; dosed: alpha-Thujone; 25 mg/kg; oral; Male; Harlan Sprague Dawley
Rat [31] = assay: concentration in brain after dosing; settings: 1.5 h; dosed: alpha-Thujone; 25 mg/kg; oral; Male; Harlan Sprague Dawley
Rat [32] = assay: concentration in brain after dosing; settings: 6 h; dosed: alpha-Thujone; 25 mg/kg; oral; Male; Harlan Sprague Dawley; remark: listed apart in the source
Rat [33] = assay: concentration in plasma after dosing; settings: 6 h; dosed: alpha-Thujone; 25 mg/kg; oral; Male; Harlan Sprague Dawley
Rat [34] = assay: concentration in plasma after dosing; settings: 12 h; dosed: alpha-Thujone; 50 mg/kg; oral; Female; Harlan Sprague Dawley
Rat [35] = assay: concentration in plasma after dosing; settings: 5 min; dosed: alpha-Thujone; 50 mg/kg; oral; Female; Harlan Sprague Dawley

O=C(O)COc1ccc(Cl)cc1Cl [2,4-Dichlorophenoxyacetic acid]
concentration in plasma [ng/mL]
Settings | 0.25 h | 0.5 h | 2 h | 2.5 min | 3 h | 4 h | 5 min | 6 h | 10 min
Mouse [1] | 12300 | 19700 | 9630 | – | 13400 | 13300 | 6510 | 4310 | –
Mouse [2] | 6770 | 6600 | 2620 | 6530 | 483 | – | 7270 | – | 7510

O=C(c1ccccc1)c1ccc(O)cc1O [2,4-Dihydroxybenzophenone]
concentration in plasma [ng/mL]
Settings | 0.25 h | 0.5 h | 2 h | 2.5 min | 3 h | 10 h | 10 min
Mouse [9] | 433 | – | 177 | 185 | 119 | – | 301
Rat [3] | – | 256 | – | – | – | 66.8 | –

Settings | concentration in plasma [ng/mL]
Mouse [5] | 2740
Mouse [6] | 903
Mouse [7] | 46.1
Mouse [8] | 856
Mouse [10] | 371
Rat [4] | 91

C=CCc1ccc(OC)c(OC)c1 [Methyleugenol]
Settings | concentration in plasma [ng/mL]
Rat [11], 0.25 h | 9380
Rat [11], 1.5 h | 670
Rat [12], 0.25 h | 9760
Rat [12], 1.5 h | 576
Rat [13], 2 h | 25.2
Rat [13], 2 min | 13.3
Rat [14], 2 h | 41.7
Rat [14], 5 min | 191

Settings | concentration in plasma [ng/mL]
Rat [15] | 47500

O=S(=O)([O-])C(F)(F)C(F)(F)C(F)(F)C(F)(F)C(F)(F)C(F)(F)F.[K+] [Perfluorohexane-1-sulphonic acid – potassium salt]
Settings | concentration in brain [ng/g] | concentration in kidney [ng/g] | concentration in liver [ng/g]
Rat [16] | – | – | 1660
Rat [17] | 1760 | – | –
Rat [18] | – | 1560 | –
Rat [19] | – | 2640 | –
Rat [21] | – | 11300 | –

Rat [20]
Settings | concentration in plasma [ng/mL]
0.25 h | 6180
6 h | 68100
528 h | 13900

CCC1(c2ccccc2)C(=O)NCNC1=O [Primidone]
Settings | concentration in plasma [ng/mL]
Rat [22] | 21600
Rat [23] | 20600
Rat [24] | 5500

c1ccncc1 [Pyridine]
Settings | concentration in plasma [ng/mL]
Rat [25] | 2920
Rat [26] | 20000
Rat [28] | 143

Rat [27]
Settings | concentration in plasma [ng/mL]
0.25 h | 3730
6 h | 1300

CC(C)[C@]12CC(=O)[C@H](C)[C@H]1C2 [alpha-Thujone]
Settings | concentration in brain [ng/g] | concentration in plasma [ng/mL]
Rat [29] | 28.2 | –
Rat [30] | 754 | –
Rat [31] | 359 | –
Rat [32] | 435 | –
Rat [33] | – | 267
Rat [34] | – | 18.3
Rat [35] | – | 112
